Literature values as cited in patent publication US20120116113A1, “PROCESS FOR MAKING NEO-ENRICHED p-MENTHANE COMPOUNDS” (priority 2010, published 2012).

Conditions: for initial cooling rating: table below paragraph [0137] of U.S. Pat. Appl. 2010/0076080

Row | SMILES | cooling effect (according to Yelm et al., U.S. Pat. Appl. 2010/0076080) | initial cooling rating
1 | CC(C)[C@@H]1CC[C@@H](C)C[C@@H]1C(=O)Nc1ccc(CC#N)cc1 (single isomer, unassigned) [neo isomer [of G-180]] | potent and long-lasting cooling effect | –
2 | CCOC(=O)CNC(=O)C1CC(C)CCC1C(C)C (stereo not drawn) [neo-WS-5] | – | 61.9
3 | CCOC(=O)CNC(=O)[C@@H]1C[C@H](C)CC[C@H]1C(C)C [normal WS-5] | – | 53.9
